These results are taken from ChEMBL document CHEMBL2086282, “2-Substituted 4,5-dihydrothiazole-4-carboxylic acids are novel inhibitors of metallo-β-lactamases” (Bioorg Med Chem Lett, 2012).

The structures appear in SMILES notation.

Broadly, the IC50 is the concentration needed to halve the response being measured. A low value points to greater potency. By Ki is commonly meant the equilibrium dissociation constant of an inhibitor or competing ligand from its target. Lower therefore signals tighter binding.

One assay concerns the target Beta-lactamase (Pseudomonas aeruginosa, UniProt Q79MP6).
Assay [1] deals with T1, Beta-lactamase II (Bacillus anthracis, UniProt Q93T40).
T1 sequence (Q93T40 whole entry): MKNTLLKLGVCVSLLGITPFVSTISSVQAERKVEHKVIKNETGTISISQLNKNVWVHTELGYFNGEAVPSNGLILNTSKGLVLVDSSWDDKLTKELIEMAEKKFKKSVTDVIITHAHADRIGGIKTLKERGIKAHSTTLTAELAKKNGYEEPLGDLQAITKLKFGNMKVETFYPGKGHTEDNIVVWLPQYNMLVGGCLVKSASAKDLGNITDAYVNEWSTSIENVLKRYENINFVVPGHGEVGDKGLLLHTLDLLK

Assay [2] addresses T1, Beta-lactamase II. This is another data set of the same source.

Chain of Beta-lactamase (Q79MP6 whole entry): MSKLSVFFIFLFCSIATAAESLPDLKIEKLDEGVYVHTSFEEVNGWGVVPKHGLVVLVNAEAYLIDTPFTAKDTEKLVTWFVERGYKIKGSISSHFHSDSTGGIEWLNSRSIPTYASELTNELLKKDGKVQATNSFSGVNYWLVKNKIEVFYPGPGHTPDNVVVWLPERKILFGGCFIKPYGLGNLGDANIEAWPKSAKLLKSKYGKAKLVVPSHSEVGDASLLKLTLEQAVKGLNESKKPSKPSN

On to `O=C(O)c1csc(-c2ccccc2)n1`, for which the IC50 against Beta-lactamase and at Beta-lactamase II [1] was over 200 µM each time.

As to `O=C(O)[C@@H]1CSC(c2ccccc2)N1` (stereo partly drawn), the IC50 on Beta-lactamase and at Beta-lactamase II [1] was over 200 µM throughout.

In the case of `O=C(O)c1csc(Cc2ccccc2)n1`, at Beta-lactamase II [1], the IC50 is over 200 µM.

In the case of `O=C(Cc1ccccc1)NCC1=N[C@H](C(=O)O)CS1`, the IC50 against Beta-lactamase and on Beta-lactamase II [1] was over 200 µM in each case.

In the case of `O=C(O)[C@@H]1CSC(Cc2ccccc2)=N1`, the IC50 against Beta-lactamase and against Beta-lactamase II [1] was over 200 µM in each case.

For `O=C(O)[C@@H]1CSC(Cc2ccccc2)N1` (stereo partly drawn), the IC50 on Beta-lactamase and at Beta-lactamase II [1] was over 200 µM in each case.

Take `O=C(O)[C@@H]1CSC(c2ccc(Cl)cc2)=N1`: the IC50 against Beta-lactamase and at Beta-lactamase II [1] was over 200 µM in each case.

With `O=C(O)[C@@H]1CSC(c2ccc(Br)cc2)=N1`, the IC50 on Beta-lactamase and on Beta-lactamase II [1] was over 200 µM throughout.

Consider `Nc1cccc(C2=N[C@H](C(=O)O)CS2)c1`, for which the midpoint of inhibition on Beta-lactamase, the IC50, lay at 77 µM. Also, at Beta-lactamase II [1], the midpoint of inhibition, the IC50, lay at 4.9 µM and the Ki was determined as 5.1 µM.

`CC(=O)Nc1cccc(C2=N[C@H](C(=O)O)CS2)c1`: the IC50 at Beta-lactamase and against Beta-lactamase II [1] was over 200 µM throughout.

For the compound `CC(C)(C)OC(=O)Nc1cccc(C2=N[C@H](C(=O)O)CS2)c1`, the IC50 is over 200 µM against Beta-lactamase and 74.1 µM at Beta-lactamase II [1].

As for `COc1cccc(CC(=O)NCC2=N[C@H](C(=O)O)CS2)c1`, the IC50 against Beta-lactamase and on Beta-lactamase II [1] was over 200 µM each time.

In the case of `CC(C)(C)OC(=O)NCC1=N[C@H](C(=O)O)CS1`, the IC50 against Beta-lactamase and on Beta-lactamase II [1] was over 200 µM throughout.

In the case of `O=C(NCC1=N[C@H](C(=O)O)CS1)OCc1ccccc1`, the IC50 on Beta-lactamase and against Beta-lactamase II [1] was over 200 µM in each case.

For `O=C(O)[C@@H]1CSC(c2ccccc2O)=N1`, the IC50 on Beta-lactamase and on Beta-lactamase II [1] was over 200 µM throughout.

On Beta-lactamase II [1], `C[C@H](CS)C(=O)N1CCC[C@H]1C(=O)O` [CAPTOPRIL] registered an IC50 of 25.8 µM and a Ki of 17.9 µM.

At Beta-lactamase II [2], `O=C(O)CN(CCN(CC(=O)O)CC(=O)O)CC(=O)O` [EDETIC ACID] registered an IC50 of 1060 µM.
